Source: US11820756B2, “Bradykinin B2 receptor antagonists” (Pharvaris Netherlands B.V., priority 2017, dated 2023)

These compounds were tested against T1, human bradykinin B2 receptor (hB2R) (Homo sapiens, UniProt P30411) (assay: cell-based human bradykinin B2 receptor calcium mobilization (hB2R-CaM) assay). Conditions: HTS041C cells, bradykinin at EC80, calcium mobilization; read-out: IC50-value towards human bradykinin B2 receptor (hB2R).
T1 sequence (P30411 1-391): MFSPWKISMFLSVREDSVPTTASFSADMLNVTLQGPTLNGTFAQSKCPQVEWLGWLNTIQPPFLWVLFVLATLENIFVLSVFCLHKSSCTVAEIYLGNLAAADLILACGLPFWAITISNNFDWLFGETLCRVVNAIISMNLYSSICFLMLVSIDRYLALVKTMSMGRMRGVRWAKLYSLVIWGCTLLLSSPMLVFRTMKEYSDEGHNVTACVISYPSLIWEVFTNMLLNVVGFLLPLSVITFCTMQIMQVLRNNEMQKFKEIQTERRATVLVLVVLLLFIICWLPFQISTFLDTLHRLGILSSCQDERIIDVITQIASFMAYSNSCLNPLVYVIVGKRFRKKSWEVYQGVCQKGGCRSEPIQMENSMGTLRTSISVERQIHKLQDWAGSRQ
From the text: The following cell-based human bradykinin B2 receptor calcium mobilization (hB2R-CaM) assay was used to determine the antagonistic activity of compounds selected from the example compounds Nos. 1 to 168 towards human bradykinin B2 receptor (hB2R). The assay is defined herein as a standard in vitro B2 receptor activity assay, which can be used to determine IC50 values of the compounds according to the present invention, e. g. the compounds shown in Examples 1-11.
The antagonistic activity of compounds according to the present invention was investigated with the hB2R-CaM assay using the B2 Bradykinin Receptor Stable Cell Line HTS041C (Eurofins, St. Charles MO) and the FLIPR Calcium 6 Assay Kit (Molecular Devices, Wokingham, UK) according to the instructions of the providers. CaM assay measurements were performed with a Flexstation 3 System (Molecular Devices) which allows the precise addition of compounds (B2R antagonists) and bradykinin (B2R agonist) to the cells and adjacent continuous recording of the time-dependent CaM assay signals.
HTS041C cells were cultured in high glucose DMEM cell culture medium (Lonza) supplemented with 10% heat-inactivated FBS (PAN Biotech), 10 mM HEPES, Penicillin/Streptomycin (200 U/mL, 200 μg/mL), 1× non-essential amino acids (Lonza), and 250 μg/mL G418 (Invivogen) in cell incubator at 37° C. in a 5% CO2 atmosphere.
One day before the CaM assay experiments cells were seeded in 200 μL DMEM cell culture medium with reduced FBS (5%) and without G418 on clear bottom black 96 well plates (ThermoFisher #165305). Cell starvation was carried out by incubation (37° C., 5% CO2) of 70.000 cells/well for 24 h to 28 h. Immediately prior calcium dye-loading the medium was carefully aspirated and cells were washed with Hank's balanced salt solution (HBSS, Gibco) containing Ca^2+, Mg^2+ and 20 mM HEPES, adjusted to pH 7.4 (HBSS+). Calcium Dye Loading of the Cells:
For calcium dye-loading one FLIPR 6 assay aliquot was dissolved in 20 mL HBSS+. 150 μL of the dye loading solution was added to cell plate and incubated for 120 min at 37° C. and 5% CO2. After dye loading the cell plate was immediately transferred to the pre-warmed (37° C.) Flexstation 3 System for CaM assaying.
Freshly prepared compound (B2 receptor antagonists) dilution series (8 pt, n=2) and bradykinin (B2 receptor agonist) solution in non-binding plates (Costar) were transferred to the Flexstation System (source plate) shortly before starting the experiment. Bradykinin was added in EC80 concentration determined in n>3 preliminary experiments with 8 pt concentration response curves (n=8)). CaM assay was executed by Flexstation 3 System starting with recording of calcium-sensitive dye fluorescence in bottom-read Flex modus with ex/em=485 nm/525 nm, cut off(em)=[…]. After 20 s, 50 μL of 4-fold concentrated compound dilutions were added to the cells resulting in a final DMSO (Sigma) concentration of 0.1% in the cell plate. CaM signals were monitored for 80 s after additions for detection of potential agonistic activities. Prior to bradykinin stimulus compound- and vehicle-treated cells were incubated for 25 min at 37° C. within the Flexstation System. Then 50 μL of a 5-fold concentrated bradykinin solution (HBSS+, 0.1% DMSO) was added to trigger CaM signals (Read out: Max-Min values) which were measured for 80 s post bradykinin stimulus.
IC50 determinations were performed by 4 parameter logistic model curve fitting of the 8 pt (n=2) compound concentration response curves using XLFIT (IDBS) software.
Relative IC50 values of the test compounds were determined with the same hB2R-CaM assay as in Example 12.

SMILES	IC50 [nM]
Cc1cc(-n2cc(F)cn2)c2cccc(OCc3c(Cl)cc(F)cc3[C@H](C)NC(=O)C3CCC(C)(C)O3)c2n1 (some centres unmarked) [Compound 109]	51 to 250
Cc1cc(-n2cc(F)cn2)c2cccc(OCc3c(Cl)cc(F)cc3[C@H](C)NC(=O)C3(C)CCCO3)c2n1 (some centres unmarked) [Compound 110]	≤ 50
Cc1cc(-n2cc(F)cn2)c2cccc(OCc3c(Cl)cc(F)cc3[C@H](C)NC(=O)[C@@H]3COC(=O)N3)c2n1 [Compound 111]	51 to 250
Cc1cc(-n2cc(F)cn2)c2cccc(OCc3c(Cl)cc(F)cc3[C@H](C)NC(=O)[C@H]3COC(=O)N3)c2n1 [Compound 112]	51 to 250
Cc1cc(-n2cc(F)cn2)c2cccc(OCc3c(Cl)cc(F)cc3[C@H](C)NC(=O)[C@@H]3CNC(=O)N3)c2n1 [Compound 113]	51 to 250
Cc1cc(-n2cc(F)cn2)c2cccc(OCc3c(Cl)cc(F)cc3[C@H](C)NC(=O)[C@@H]3CCC(=O)N3)c2n1 [Compound 114]	51 to 250
Cc1cc(-n2cc(F)cn2)c2cccc(OCc3c(Cl)cc(F)cc3[C@H](C)NC(=O)[C@H]3CCC(=O)N3)c2n1 [Compound 115]	51 to 250
Cc1cc(-c2ncnn2C)c2cccc(OCc3c(Cl)cc(F)cc3[C@H](C)NC(=O)COC(F)(F)F)c2n1 [Compound 116]	≤ 50
Cc1cc(-c2ncnn2C)c2cccc(OCc3c(Cl)cc(F)cc3[C@H](C)NC(=O)COCC3CC3)c2n1 [Compound 117]	≤ 50
Cc1cc(-c2ncnn2C)c2cccc(OCc3c(Cl)cc(F)cc3[C@H](C)NC(=O)C3CCC(C)(C)O3)c2n1 (some centres unmarked) [Compound 118]	≤ 50
Cc1cc(-c2ncnn2C)c2cccc(OCc3c(Cl)cc(F)cc3[C@H](C)NC(=O)C3(C)CCCO3)c2n1 (some centres unmarked) [Compound 119]	51 to 250
Cc1cc(-c2ncnn2C)c2cccc(OCc3c(Cl)cc(F)cc3[C@H](C)NC(=O)c3cnco3)c2n1 [Compound 120]	≤ 50
Cc1cc(-n2cc(F)cn2)c2cccc(OCc3c(Cl)cc(F)cc3[C@H](C)NC(=O)COC(F)(F)F)c2n1 [Compound 121]	≤ 50
Cc1cc(-c2ncnn2C)c2cccc(OCc3c(Cl)cc(F)cc3[C@H](C)NC(=O)c3ccon3)c2n1 [Compound 122]	≤ 50
Cc1cc(-n2cc(F)cn2)c2cccc(OCc3c(Cl)cc(F)cc3[C@H](C)NC(=O)c3ccccn3)c2n1 [Compound 123]	51 to 250
Cc1cc(-n2cc(F)cn2)c2cccc(OCc3c(Cl)cc(F)cc3[C@H](C)NC(=O)c3cccnc3)c2n1 [Compound 124]	≤ 50
Cc1cc(-n2cc(F)cn2)c2cccc(OCc3c(Cl)cc(F)cc3[C@H](C)NC(=O)c3ccncc3)c2n1 [Compound 125]	51 to 250
Cc1cc(-c2ncnn2C)c2cccc(OCc3c(Cl)cc(F)cc3[C@H](C)NC(=O)c3ocnc3C)c2n1 [Compound 126]	≤ 50
Cc1cc(-c2ncnn2C)c2cccc(OCc3c(Cl)cc(F)cc3[C@H](C)NC(=O)c3cc(C)on3)c2n1 [Compound 127]	≤ 50
Cc1cc(-c2ncnn2C)c2cccc(OCc3c(Cl)cc(F)cc3[C@H](C)NC(=O)c3cocn3)c2n1 [Compound 128]	≤ 50
Cc1cc(-c2ncnn2C)c2cccc(OCc3c(Cl)cc(F)cc3[C@H](C)NC(=O)c3cc(C)n(C)n3)c2n1 [Compound 129]	≤ 50
Cc1cc(-c2ncnn2C)c2cccc(OCc3c(Cl)cc(F)cc3[C@H](C)NC(=O)c3coc(C)n3)c2n1 [Compound 130]	≤ 50
CC[C@H](NC(=O)COC(F)F)c1cc(F)cc(Cl)c1COc1cccc2c(-c3ncnn3C)cc(C)nc12 [Compound 131]	≤ 50
Cc1cc(-n2cc(F)cn2)c2cccc(OCc3c(Cl)cc(F)cc3[C@H](C)NC(=O)[C@@H]3CC[C@H](C)O3)c2n1 [Compound 132]	≤ 50
Cc1cc(-c2ncnn2C)c2cccc(OCc3c(Cl)cc(F)cc3[C@H](C)NC(=O)[C@@H]3CC[C@H](C)O3)c2n1 [Compound 133]	≤ 50
Cc1cc(-n2nc(C)nc2C)c2cccc(OCc3c(Cl)cc(F)cc3[C@H](C)NC(=O)COC(F)F)c2n1 [Compound 134]	≤ 50
